The target of data set [1] is histone deacetylase (HeLa nuclear extracts). Nature of the data set: In vitro assay for inhibition of histone deacetylase (HDAC Fluorescent Activity Assay, Fluor de Lys). It counts as biochemical. As to conditions: Fluor de Lys substrate. The text has this:
The in vitro assay for inhibition of histone deacetylase (see example C.1) measures the inhibition of HDAC enzymatic activity obtained with the compounds of formula (I).
The HDAC Fluorescent Activity Assay/Drug Discovery Kit of Biomol (cat.No: AK-500-0001) was used. The HDAC Fluorescent Activity Assay is based on the Fluor de Lys (Fluorogenic […] deAcetylase Lysyl) substrate and developer combination. The Fluor de Lys substrate, comprises an acetylated lysine side chain. Deacetylation of the substrate sensitizes the substrate so that, in the second step, treatment with the Fluor de Lys developer produces a fluorophore.
After 30 min, 1 volume of the developer was added. […] For each experiment, controls (containing HeLa nuclear extract and buffer), a blank incubation (containing buffer but no HeLa nuclear extract) and samples (containing compound dissolved in DMSO and further diluted in buffer and HeLa nuclear extract) were run in parallel. […] All sample were tested 4 times. In each test the blank value was substracted from both the control and the sample values. The control sample represented 100% of substrate deactylation. For each sample the fluorescence was expressed as a percentage of the mean value of the controls. […] Herein the effects of test compounds are expressed as pIC50 (the negative log value of the IC50-value) (see Table F-3).

Data set [2] concerns A2780 ovarian carcinoma cells. Briefly: Antiproliferative activity on A2780 cells (MTT). The conditions noted are these: Homo sapiens, A2780, 96 h, four days of incubation, read-out: Cellular activity pIC50 C.2. (converted). In kind it is cell-based, human. Here is the method:
Cellular activity of the compounds of formula (I) was determined on A2780 tumour cells using a […] assay for cell toxicity or survival (Mosmann Tim, Journal of Immunological Methods 65: 55-63, 1983)(see example C.2).
All compounds tested were dissolved in DMSO and further dilutions were made in culture medium. Final DMSO concentrations never exceeded 0.1% (v/v) in cell proliferation assays. Controls contained A2780 cells and DMSO without compound and blanks contained DMSO but no cells. MTT was dissolved at 5 mg/ml in PBS. A glycine buffer comprised of 0.1 M glycine and 0.1 M NaCl buffered to pH 10.5 with NaOH (1 N) was prepared (all reagents were from Merck).
The human A2780 ovarian carcinoma cells (a kind gift from Dr. T. C. Hamilton [Fox Chase Cancer Centre, Pennsylvania, USA]) were cultured in RPMI 1640 medium supplemented with 2 mM L-glutamine, 50 μg/ml gentamicin and 10% fetal calf serum.
Cells were routinely kept as monolayer cultures at 37° C. in a humidified 5% CO2 atmosphere. Cells were passaged once a week using a trypsin/EDTA solution at a split ratio of 1:40. All media and supplements were obtained from Life Technologies. Cells were free of mycoplasma contamination as determined using the Gen-Probe Mycoplasma Tissue Culture kit (supplier: BioMérieux).
Cells were seeded in NUNC™ 96-well culture plates (Supplier: Life Technologies) and allowed to adhere to the plastic overnight. Densities used for plating were 1500 cells per well in a total volume of 200 μl medium. After cell adhesion to the plates, medium was changed and drugs and/or solvents were added to a final volume of 200 μl. Following four days of incubation, medium was replaced by 200 μl fresh medium and cell density and viability was assessed using an MTT-based assay. To each well, 25 μl […] solution was added and the cells were further incubated for 2 hours at 37° C. The medium was then carefully aspirated and the blue MTT-formazan product was solubilized by addition of 25 μl glycine buffer followed by 100 μl of DMSO. […] Within an experiment, the results for each experimental condition are the mean of 3 replicate wells. For initial screening purposes, compounds were tested at a single fixed concentration of 10^−6 M. For active compounds, the experiments were repeated to establish full concentration-response curves. For each experiment, controls (containing no drug) and a blank incubation (containing no cells or drugs) were run in parallel. The blank value was subtracted from all control and sample values. For each sample, the mean value for cell growth (in absorbance units) was expressed as a percentage of the mean value for cell growth of the control. […] Herein the effects of test compounds are expressed as pIC50 (the negative log value of the IC50-value)(see Table F-3).

Data set [3] in a line: Kinetic solubility in aqueous media (nephelometer, C.3.a). In kind it is physicochemical. As to conditions: aqueous buffer, kinetic from dmso stock; score; phosphate citrate buffer pH 7.4, turbidity. Here is the method: The solubility of a compound measures the ability of a compound to stay in solution. In a first method the ability of a compound to stay in aqueous solution upon dilution (see example C.3.a) is measured. DMSO-stock solutions are diluted with a single aqueous buffer solvent in 3 consecutive steps. For every dilution turbidity is measured with a nephelometer.
In the first dilution step, 10 μl of a concentrated stock-solution of the active compound, solubilized in DMSO (5 mM), was added to 100 μl phosphate citrate buffer pH 7.4 and mixed. In the second dilution step, an aliquot (20 μl) of the first dilution step was further dispensed in 100 μl phosphate citrate buffer pH 7.4 and mixed. Finally, in the third dilution step, a sample (20 μl) of the second dilution step was further diluted in 100 μl phosphate citrate buffer pH 7.4 and mixed. All dilutions were performed in 96-well plates. Immediately after the last dilution step the turbidity of the three consecutive dilution steps were measured with a nephelometer. Dilution was done in triplicate for each compound to exclude occasional errors. Based on the turbidity measurements a ranking is performed into 3 classes. Compounds with high solubility obtained a score of 3 and for this compounds the first dilution is clear. Compounds with medium solubility obtained a score of 2. For these compounds the first dilution is unclear and the second dilution is clear.

Data set [4] has as its system p21 promoter reporter A2780 tumour in nude mice. Briefly: p21 promoter induction in vivo method, tumour fluorescence (C.6.c). As to conditions: oral administration, daily during 6 days, 20-40 mpk. On the procedure: Another method tests the capacity of compounds to induce p21 as the consequence of HDAC inhibition at the cellular level. […] The reporter gene is a fluorescent protein and the expression of the reporter gene is measured as the amount of fluorescent light emitted (see example C.6.b.). The last method is an in vivo method wherein mice are used for screening the pharmaceutical activity of a compound. The above described stably transformed tumour cells can be administered to mice in an amount sufficient to effect production of a tumour. After the tumour cells had sufficient time to form a tumour, a potentially active compound can be administered to the animals and the effect of said compound on the tumour cells is evaluated by measuring the expression of the reporter gene. Incubation with pharmaceutical active compounds will result in an increase of reporter gene expression compared to the control levels (see example C.6.c.)
A selected clone was injected subcutaneous (10^7 cells/200 μl) into the flank of nude mice and a calliper measurable tumour was obtained after 12 days. […] Tumours were evaluated for fluorescence by the in-house developed Automated Whole Body Imaging System (Fluorescent stereomicroscope type Olympus® SZX12 equipped with a GFP filter and coupled to a CCD camera type JAI® CV-M90 controlled by a software package based on the IMAQ Vision Software from National Instruments®). […]

Assay in data set [5]: not given
The source holds these as a separate data set.

The nature of data set [6]: Metabolic stability with rat hepatocytes cell culture (C.5.b). In kind it is in vitro ADME. As to conditions: 5 μM. The source says: Metabolism of drugs means that a lipid-soluble xenobiotic or endobiotic compound is enzymatically transformed into (a) polar, water-soluble, and excretable metabolite(s). The major organ for drug metabolism is the liver. […] However, some metabolites may have enhanced activity or toxic effects. Thus drug metabolism may include both “detoxication” and “toxication” processes. One of the major enzyme systems that determine the organism's capability of dealing with drugs and chemicals is represented by the cytochrome P450 monooxygenases, which are NADPH dependent enzymes. Metabolic stability of compounds can be determined in vitro with the use of subcellular human tissue (see example C.5.a.). Here metabolic stability of the compounds is expressed as % of drug metabolised after 15 minutes incubation of these compounds with microsomes. Quantitation of the compounds was determined by LC-MS analysis. Metabolic stability of compounds can also be determined by calculating the half live of compounds in rat hepatocyte cells (see example C.5.b.). […]
Samples were prepared for LC-MS by addition of two volumes of DMSO. […] Of the resulting supernatant 50 μl was analysed by LC-MS. […]
Total injection volume of samples was 50 μL. […] The mass spectrometer was operated in positive ion mode in SIM adjusted to the mass of M+H with a scan width of 1 Da for quantification purposes. […]

Read-outs that look alike come from different tables or passages of the source. Bounds are passed on as bounds.

For `COc1cc(N)c(Cl)cc1C(=O)NC1CCN(CCCOc2ccc(F)cc2)CC1OC` (stereo not drawn) [Cisapride], under “human, 15 min, 5 μM”, the “% metabolism” value amounted to 45%.
By solubility is commonly meant the concentration that dissolves in the medium under given conditions. Lower therefore signals a poorly soluble substance. As a reminder, the melting point is the temperature, or range, at which the solid turns liquid. `O=C(NO)c1cnc(N2CCN(C(/C=C/c3ccccc3)CO)CC2)nc1` (stereo not drawn) [Compound 1]: the “Enzymatic activity pIC50 C.1.” value in data set [1] is listed as 8.2. Also, in data set [2], the IC50 was 12.6 nM. For the same molecule, the solubility in data set [3] is above 455 µM. Moreover, the “tumour fluorescence ranked relative to R306465” value in data set [4] is recorded as “better than R306465”. The melting point in data set [5] was 187 °C.
As for `O=C(NO)c1cnc(N2CCN(C(/C=C/c3ccc(Cl)cc3)CN3CCOCC3)CC2)nc1` (stereo not drawn) [Compound 2], in data set [1], the “Enzymatic activity pIC50 C.1.” value came out at 7.4. The IC50 in data set [2] was 316 nM. In addition, the solubility in data set [3] was above 455 µM.
Taken in the same sequence, the figures for `COc1ccc(/C=C/C(CO)N2CCN(c3ncc(C(=O)NO)cn3)CC2)cc1` (stereo not drawn) [Compound 3] were 8.1, 31.6 nM and above 455 µM.
Consider `O=C(NO)c1cnc(N2CCN(C(/C=C/c3ccc(Cl)cc3)CO)CC2)nc1` (stereo not drawn) [Compound 4], for which the “Enzymatic activity pIC50 C.1.” value in data set [1] worked out at 8.2. Also, the IC50 in data set [2] is 31.6 nM. This molecule also showed a solubility in data set [3] above 455 µM. In data set [6], the in vitro half-live is 23 min.
On to `O=C(NO)c1cnc(N2CCN(C(/C=C/c3ccc(-c4ccccc4)cc3)CO)CC2)nc1` (stereo not drawn) [Compound 5], for which, in data set [1], the “Enzymatic activity pIC50 C.1.” value stood at 7.9. In addition, the IC50 in data set [2] is 39.8 nM. This molecule also came in with a solubility in data set [3] below 76 µM.
Taken in the same sequence, the figures for `O=C(NO)c1cnc(N2CCN(C(/C=C/c3ccc(C(F)(F)F)cc3)CO)CC2)nc1` (stereo not drawn) [Compound 6] were 7.6, 39.8 nM and above 455 µM.
Taken in the same sequence, the figures for `O=C(NO)c1cnc(N2CCN(C(/C=C/c3ccccc3)C(=O)NC3CC3)CC2)nc1` (stereo not drawn) [Compound 15] were 7.6, 100 nM and above 455 µM.
`O=C(NO)c1cnc(N2CCN(S(=O)(=O)c3ccc4ccccc4c3)CC2)nc1` [Compound R306465, reference compound]: the in vitro half-live in data set [6] is listed as 8 min.
`CCCO` [propanol]: where the note is “after 15 min incubation with active microsomes, compound 5 μM”, the “% metabolism” value came to 25%.

(Values after US7947830B2, “Substituted propenyl piperazine derivatives as novel inhibitors of histone deacetylase” (Janssen Pharmaceutica N.V., priority 2004, dated 2011).)
